Measured values as given in patent US6465519B2, “Uses of modafinil and its D/L enantiomers” (priority 1999, dated 2002).

How the values were obtained:
[1] = tested on: spermatozoa counts in rats; experiment: Effect of Modafinil on spermatogenesis in rats; assay type: in vivo, SD male rats; conditions: for mean number of spermatozoa per gram weight of sperm ± S.D.: SD male rats, sperm from epididymis tail
Experimental: EXPERIMENTAL ANIMALS: SD male rats, 2 months old, weighing 210 to 260 g, were used for this experiment. All the animals were fed in the laboratory for a week before starting the experiment for accommodative purpose. The animals were distributed randomly into 5 experimental groups, 10 in each group. The room temperature was kept at 20 to 25° C. 4 groups of rats were administrated with Modafinil and 1 group for control.
METHODS AND PROTOCOLS: In treated groups, various doses of Modafinil were given by gavage as 200, 400, 600 and 800 mg/kg/day in rats. Modafinil(prepared according to Example 1 in the U.S. Pat. No. 4,177,290) was mixed with 3% starch paste, 2 ml for each rat per day, gavage feeding for successive 30 days. The controlled animals received the 3% starch paste without drug, with same amount for 30 successive days. The morphology, motility and number of the spermatozoa of the animals in each group were observed and counted. On days 31, all animals were killed. Spermatozoa in the sperm taken from epididymis tail were counted; the testes and prostates were taken out. Histological sections were made and examined under microscope.

[2] = tested on: SD rats of both sexes; experiment: Effect of Modafinil on sexual ability in rats; assay type: in vivo; conditions: 200 mg/kg/day for 15 days
Experimental: EXPERIMENTAL ANIMALS: SD rats of both sexes were used and feeding methods of the drug were the same as in the Example 1.
EXPERIMENTAL PROTOCOL: 15 males and 15 females for control fed with 3% starch paste for 15 days while 15 males and 15 females were is treated with 200 mg/kg/day of Modafinil(prepared according to Example 1 in the U.S. Pat. No. 4,177,290) for 15 days. On day 16 evening, each special cage was distributed by chance with 1 male and 1 female rat couple. For the first 2 hours of coinhabitation, the numbers of sexual intercourse movement of male along with acceptance of female were counted.

[3] = tested on: Young female SD rats; experiment: Effect of Modafinil on uterus weight in female rats; assay type: in vivo; conditions: 200 mg/kg/day for 15 days
Experimental: EXPERIMENTAL ANIMAL: Young female SD rats of 25 days old were used. Food and drug administration was the sane as used in the Example 1.
EXPERIMENTAL PROTOCOL: 15 female rats for control were fed 3% starch paste 2 ml/day for 15 successive days. 15 female rats treated with Modafinil(prepared according to Example 1 in the U.S. Pat. No. 4,177,290) mixed with 3% starch paste for 200 mg/kg/day in 2 ml of starch paste a day. Animals were sacrificed on day 16 and the uterei were taken out. Every fresh uterus was weighed.

[4] = cited from earlier work

NC(=O)C[S+]([O-])C(c1ccccc1)c1ccccc1 (stereo not drawn) [Modafinil, 2-[(Diphenylmethyl)sulfinyl]-N-Acetamide]
mean number of spermatozoa per gram weight of sperm ± S.D. ([1]; 200 mg/kg/day by gavage for 30 days): 819.8 ± 295.6 per gram weight of sperm | mean number of spermatozoa per gram weight of sperm ± S.D. ([1]; 400 mg/kg/day by gavage for 30 days): 1753.8 ± 540.6 per gram weight of sperm | mean number of spermatozoa per gram weight of sperm ± S.D. ([1]; 600 mg/kg/day by gavage for 30 days): 1706.0 ± 379.9 per gram weight of sperm | mean number of spermatozoa per gram weight of sperm ± S.D. ([1]; 800 mg/kg/day by gavage for 30 days): 1656.0 ± 165.8 per gram weight of sperm | histological examination: stages of normal spermatogenesis in the seminiferous tubules ([1]; Modafinil treated groups versus controls, testes sections): more distinct and regular than those in the controls | histological examination: cell degeneration during the course of spermatogenesis ([1]; Modafinil treated groups, testes sections): No cell degeneration was found | number of spermatozoa and motility ([1]; all Modafinil treated groups (200-800 mg/kg/day, 30 days), rats): remarkably increased with active motility | number of sexual intercourse (Mean±S.D.) ([2]; males and females treated, first 2 hours of coinhabitation on day 16): 5.0±1.2 times/2 hours/couple | mean number of sexual intercourse relative to control ([2]; rats): 161 % of the control | mean uterus weight relative to controls [3]: 158 % of that in Controls | mean uterus weight (Mean+S.D.) ([3]; fresh uterus on day 16): 0.418 ± 0.082 g | solubility in acetone ([4]; acetone): sparingly or slightly soluble | solubility in cyclohexane ([4]; cyclohexane): insoluble | solubility in methanol ([4]; methanol): sparingly or slightly soluble | solubility in water ([4]; water): insoluble
